The source of these data is ChEMBL document CHEMBL4507288 (2021).

SMILES strings stand for the structures.

Test [1] concerns the target Alpha-2A adrenergic receptor (Homo sapiens, UniProt P08913). Kind of test: GPCRScan assay: inhibition of Alpha2A. Set-up: radioligand conc. used [nm] 1.0 – 3.0, parental cells stable MDCK.
Test [2] addresses Sodium-dependent noradrenaline transporter (Homo sapiens, UniProt P23975). Kind of test: GPCRScan assay: inhibition of NET. Also noted: radioligand conc. used [nm] 1.3 – 5.0, parental cells stable HEK.
The target in test [3] is 5-hydroxytryptamine receptor 1A (Homo sapiens, UniProt P08908). Kind of test: GPCRScan assay: inhibition of 5-HT1A. Also noted: radioligand conc. used [nm] 0.5 – 1.0, parental cells stable CHO.
Sequence of 5-hydroxytryptamine receptor 1A (P08908 whole entry): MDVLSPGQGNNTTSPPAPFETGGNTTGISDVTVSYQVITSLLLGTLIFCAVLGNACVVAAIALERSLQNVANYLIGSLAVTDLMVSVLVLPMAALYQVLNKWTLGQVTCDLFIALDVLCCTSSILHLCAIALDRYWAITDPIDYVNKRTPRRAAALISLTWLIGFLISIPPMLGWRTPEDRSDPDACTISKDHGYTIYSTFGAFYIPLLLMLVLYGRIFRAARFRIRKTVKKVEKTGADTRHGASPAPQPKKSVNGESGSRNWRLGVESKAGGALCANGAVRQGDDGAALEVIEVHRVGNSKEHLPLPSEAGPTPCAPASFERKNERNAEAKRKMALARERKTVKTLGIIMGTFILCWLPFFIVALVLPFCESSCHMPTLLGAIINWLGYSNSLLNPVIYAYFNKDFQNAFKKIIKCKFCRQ
The target of test [4] is 5-hydroxytryptamine receptor 2C (Homo sapiens, UniProt P28335). Kind of test: GPCRScan assay: inhibition of 5-HT2C. Set-up: radioligand conc. used [nm] 1.0 – 2.5, parental cells HEK T.
In test [5] the target is Serine/threonine-protein kinase D3 (Homo sapiens) (UniProt O94806). As to conditions: Compound concentration 1000.0 nM.
Test [6] concerns the target Discoidin domain-containing receptor 2 (Homo sapiens) (UniProt Q16832). The conditions noted are these: Compound concentration 1000.0 nM.
For test [7], the target named is SRSF protein kinase 3 (Homo sapiens) (UniProt Q9UPE1). The conditions noted are these: Compound concentration 1000.0 nM.
In test [8] the target is Protein kinase C delta type (Homo sapiens) (UniProt Q05655). As to conditions: Compound concentration 1000.0 nM.
Test [9] has as its target STE20/SPS1-related proline-alanine-rich protein kinase (Homo sapiens) (UniProt Q9UEW8). The conditions noted are these: Compound concentration 1000.0 nM.
Test [10] deals with Serine/threonine-protein kinase MAK (Homo sapiens) (UniProt P20794). As to conditions: Compound concentration 1000.0 nM.
Test [11] addresses Serine/threonine-protein kinase PLK1 (Homo sapiens) (UniProt P53350). As to conditions: Compound concentration 1000.0 nM.
Test [12] addresses Mitogen-activated protein kinase kinase kinase 20 (Homo sapiens) (UniProt Q9NYL2). As to conditions: Compound concentration 1000.0 nM.
Test [13] deals with Serine/threonine-protein kinase 4 (Homo sapiens) (UniProt Q13043). As to conditions: Compound concentration 1000.0 nM.
Test [14] addresses Calcium/calmodulin-dependent protein kinase kinase 1 (Homo sapiens) (UniProt Q8N5S9). The conditions noted are these: Compound concentration 1000.0 nM.
Test [15] concerns the target cAMP-dependent protein kinase catalytic subunit alpha (Homo sapiens) (UniProt P17612). As to conditions: Compound concentration 1000.0 nM.
In test [16] the target is Serine/threonine-protein kinase PLK2 (Homo sapiens) (UniProt Q9NYY3). As to conditions: Compound concentration 1000.0 nM.
Test [17] has as its target Epidermal growth factor receptor (Homo sapiens) (UniProt P00533). The conditions noted are these: Compound concentration 1000.0 nM.
The target of test [18] is Mitogen-activated protein kinase kinase kinase 4 (Homo sapiens) (UniProt Q9Y6R4). As to conditions: Compound concentration 1000.0 nM.
Sequence of Mitogen-activated protein kinase kinase kinase 4 (Homo sapiens) (Q9Y6R4 whole entry): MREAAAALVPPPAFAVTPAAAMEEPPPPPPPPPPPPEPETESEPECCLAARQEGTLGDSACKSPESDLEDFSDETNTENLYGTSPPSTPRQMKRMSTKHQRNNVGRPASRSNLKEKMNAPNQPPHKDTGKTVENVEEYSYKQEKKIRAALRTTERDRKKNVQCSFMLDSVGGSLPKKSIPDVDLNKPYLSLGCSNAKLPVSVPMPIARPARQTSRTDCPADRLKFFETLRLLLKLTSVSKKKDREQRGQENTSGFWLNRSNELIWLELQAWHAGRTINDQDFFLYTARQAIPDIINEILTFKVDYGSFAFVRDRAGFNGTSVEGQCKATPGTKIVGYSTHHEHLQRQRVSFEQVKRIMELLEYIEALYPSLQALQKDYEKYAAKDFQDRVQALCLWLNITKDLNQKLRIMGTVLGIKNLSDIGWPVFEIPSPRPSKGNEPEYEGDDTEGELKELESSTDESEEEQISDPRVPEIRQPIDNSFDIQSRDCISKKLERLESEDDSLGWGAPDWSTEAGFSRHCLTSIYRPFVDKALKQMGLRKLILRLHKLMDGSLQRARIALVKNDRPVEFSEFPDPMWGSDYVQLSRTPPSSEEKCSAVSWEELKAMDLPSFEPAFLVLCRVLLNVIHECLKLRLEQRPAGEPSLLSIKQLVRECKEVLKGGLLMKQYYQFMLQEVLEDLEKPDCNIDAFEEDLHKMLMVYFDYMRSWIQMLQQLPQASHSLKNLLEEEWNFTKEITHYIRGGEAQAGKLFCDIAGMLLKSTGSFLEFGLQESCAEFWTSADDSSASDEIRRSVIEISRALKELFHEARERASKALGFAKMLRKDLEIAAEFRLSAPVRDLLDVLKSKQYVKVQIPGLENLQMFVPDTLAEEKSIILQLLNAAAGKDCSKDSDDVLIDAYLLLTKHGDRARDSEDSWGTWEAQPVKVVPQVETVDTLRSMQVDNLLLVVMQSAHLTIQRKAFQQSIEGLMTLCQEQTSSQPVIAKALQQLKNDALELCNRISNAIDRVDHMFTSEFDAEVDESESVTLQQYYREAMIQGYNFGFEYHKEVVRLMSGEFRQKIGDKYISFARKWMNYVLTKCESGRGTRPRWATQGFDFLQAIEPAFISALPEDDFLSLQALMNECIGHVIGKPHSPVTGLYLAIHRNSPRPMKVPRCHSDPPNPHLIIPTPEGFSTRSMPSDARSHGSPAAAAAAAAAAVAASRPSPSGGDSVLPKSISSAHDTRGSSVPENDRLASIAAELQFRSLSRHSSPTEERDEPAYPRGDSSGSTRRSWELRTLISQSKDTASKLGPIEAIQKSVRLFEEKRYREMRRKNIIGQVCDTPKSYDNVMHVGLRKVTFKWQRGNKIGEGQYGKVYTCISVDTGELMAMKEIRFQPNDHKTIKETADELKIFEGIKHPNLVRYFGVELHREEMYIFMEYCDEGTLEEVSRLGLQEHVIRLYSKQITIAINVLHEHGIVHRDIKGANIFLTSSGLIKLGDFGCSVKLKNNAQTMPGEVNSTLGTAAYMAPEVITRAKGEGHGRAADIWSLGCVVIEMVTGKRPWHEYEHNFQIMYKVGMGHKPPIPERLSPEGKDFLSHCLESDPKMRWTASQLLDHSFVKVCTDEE
The target in test [19] is Tyrosine-protein kinase receptor TYRO3 (Homo sapiens) (UniProt Q06418). The conditions noted are these: Compound concentration 1000.0 nM.
Sequence of Tyrosine-protein kinase receptor TYRO3 (Homo sapiens) (Q06418 whole entry): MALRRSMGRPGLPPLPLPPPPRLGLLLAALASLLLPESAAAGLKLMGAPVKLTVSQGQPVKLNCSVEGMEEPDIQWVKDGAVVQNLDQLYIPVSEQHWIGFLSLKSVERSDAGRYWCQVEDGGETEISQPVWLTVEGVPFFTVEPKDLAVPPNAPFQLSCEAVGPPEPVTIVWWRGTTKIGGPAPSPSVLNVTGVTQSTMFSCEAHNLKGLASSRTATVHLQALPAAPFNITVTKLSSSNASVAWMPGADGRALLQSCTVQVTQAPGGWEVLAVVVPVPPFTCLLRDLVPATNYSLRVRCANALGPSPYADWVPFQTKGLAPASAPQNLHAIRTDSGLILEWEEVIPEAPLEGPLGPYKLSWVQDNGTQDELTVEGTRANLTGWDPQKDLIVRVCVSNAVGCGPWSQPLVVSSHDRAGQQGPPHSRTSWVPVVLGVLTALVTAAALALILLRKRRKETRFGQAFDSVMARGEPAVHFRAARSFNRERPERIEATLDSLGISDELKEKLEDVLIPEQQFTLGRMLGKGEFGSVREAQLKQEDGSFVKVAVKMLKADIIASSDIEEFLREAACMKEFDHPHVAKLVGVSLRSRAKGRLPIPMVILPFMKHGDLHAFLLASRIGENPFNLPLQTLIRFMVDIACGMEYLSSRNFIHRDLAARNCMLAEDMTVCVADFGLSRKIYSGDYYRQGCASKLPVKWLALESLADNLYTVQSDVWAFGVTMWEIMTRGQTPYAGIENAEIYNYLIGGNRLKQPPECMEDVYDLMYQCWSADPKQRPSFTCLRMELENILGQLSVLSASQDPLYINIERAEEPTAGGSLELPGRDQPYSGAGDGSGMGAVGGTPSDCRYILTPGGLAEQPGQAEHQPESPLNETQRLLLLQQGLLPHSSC
Test [20] has as its target Cyclin-dependent kinase 16 (Homo sapiens) (UniProt Q00536). As to conditions: Compound concentration 1000.0 nM.
Test [21] addresses Serine/threonine-protein kinase WNK3 (Homo sapiens) (UniProt Q9BYP7). As to conditions: Compound concentration 1000.0 nM.
The target of test [22] is Mitogen-activated protein kinase 9 (Homo sapiens) (UniProt P45984). As to conditions: Compound concentration 1000.0 nM.
Test [23] has as its system Phosphatidylinositol 4,5-bisphosphate 3-kinase catalytic subunit alpha isoform (Homo sapiens), P42336 [Q546K]. The conditions noted are these: Compound concentration 1000.0 nM.
Test [24] has as its target Phosphatidylinositol 4-phosphate 3-kinase C2 domain-containing subunit beta (Homo sapiens) (UniProt O00750). As to conditions: Compound concentration 1000.0 nM.
The target in test [25] is Calcium/calmodulin-dependent protein kinase type II subunit alpha (Homo sapiens) (UniProt Q9UQM7). The conditions noted are these: Compound concentration 1000.0 nM.
Test [26] concerns the target Inhibitor of nuclear factor kappa-B kinase subunit alpha (Homo sapiens) (UniProt O15111). The conditions noted are these: Compound concentration 1000.0 nM.
The target of test [27] is Serine/threonine-protein kinase PAK 5 (Homo sapiens) (UniProt Q9P286). As to conditions: Compound concentration 1000.0 nM.
For test [28], the target named is Wee1-like protein kinase 2 (Homo sapiens) (UniProt P0C1S8). The conditions noted are these: Compound concentration 1000.0 nM.
Test [29] has as its target Serine/threonine-protein kinase MRCK gamma (Homo sapiens) (UniProt Q6DT37). As to conditions: Compound concentration 1000.0 nM.
The target of test [30] is Rho-associated protein kinase 1 (Homo sapiens) (UniProt Q13464). The conditions noted are these: Compound concentration 1000.0 nM.
Test [31] deals with Cyclin-dependent kinase 13 (Homo sapiens) (UniProt Q14004). The conditions noted are these: Compound concentration 1000.0 nM.
The target of test [32] is Cyclin-dependent kinase-like 3 (Homo sapiens) (UniProt Q8IVW4). The conditions noted are these: Compound concentration 1000.0 nM.
The target in test [33] is Activin receptor type-1-like (Homo sapiens) (UniProt P37023). The conditions noted are these: Compound concentration 1000.0 nM.
Test [34] addresses Serine/threonine-protein kinase STK11 (Homo sapiens) (UniProt Q15831). As to conditions: Compound concentration 1000.0 nM.
In test [35] the target is Dual specificity mitogen-activated protein kinase kinase 6 (Homo sapiens) (UniProt P52564). The conditions noted are these: Compound concentration 1000.0 nM.
The test system of test [36] is Receptor-type tyrosine-protein kinase FLT3 (Homo sapiens), P36888 [R834Q]. The conditions noted are these: Compound concentration 1000.0 nM.
Test [37] addresses Serine/threonine-protein kinase Nek3 (Homo sapiens) (UniProt P51956). The conditions noted are these: Compound concentration 1000.0 nM.
In test [38] the target is Platelet-derived growth factor receptor alpha (Homo sapiens) (UniProt P16234). The conditions noted are these: Compound concentration 1000.0 nM.
Test [39] has as its target Protein kinase C theta type (Homo sapiens) (UniProt Q04759). As to conditions: Compound concentration 1000.0 nM.
Test [40] relates to Tyrosine-protein kinase ABL1 (Homo sapiens), P00519 [M351T]. The conditions noted are these: Compound concentration 1000.0 nM.
In test [41] the target is Ankyrin repeat and protein kinase domain-containing protein 1 (Homo sapiens) (UniProt Q8NFD2). The conditions noted are these: Compound concentration 1000.0 nM.
The target in test [42] is Tyrosine-protein kinase receptor Tie-1 (Homo sapiens) (UniProt P35590). As to conditions: Compound concentration 1000.0 nM.
For test [43], the target named is Serine/threonine-protein kinase SIK2 (Homo sapiens) (UniProt Q9H0K1). The conditions noted are these: Compound concentration 1000.0 nM.
The target of test [44] is Serine/threonine-protein kinase pim-2 (Homo sapiens) (UniProt Q9P1W9). As to conditions: Compound concentration 1000.0 nM.
In test [45] the target is Peripheral plasma membrane protein CASK (Homo sapiens) (UniProt O14936). As to conditions: Compound concentration 1000.0 nM.

Sequence of Phosphatidylinositol 4,5-bisphosphate 3-kinase catalytic subunit alpha isoform (Homo sapiens), P42336 [Q546K] (P42336 whole entry Q546K, the tested form may be a part, canonical isoform): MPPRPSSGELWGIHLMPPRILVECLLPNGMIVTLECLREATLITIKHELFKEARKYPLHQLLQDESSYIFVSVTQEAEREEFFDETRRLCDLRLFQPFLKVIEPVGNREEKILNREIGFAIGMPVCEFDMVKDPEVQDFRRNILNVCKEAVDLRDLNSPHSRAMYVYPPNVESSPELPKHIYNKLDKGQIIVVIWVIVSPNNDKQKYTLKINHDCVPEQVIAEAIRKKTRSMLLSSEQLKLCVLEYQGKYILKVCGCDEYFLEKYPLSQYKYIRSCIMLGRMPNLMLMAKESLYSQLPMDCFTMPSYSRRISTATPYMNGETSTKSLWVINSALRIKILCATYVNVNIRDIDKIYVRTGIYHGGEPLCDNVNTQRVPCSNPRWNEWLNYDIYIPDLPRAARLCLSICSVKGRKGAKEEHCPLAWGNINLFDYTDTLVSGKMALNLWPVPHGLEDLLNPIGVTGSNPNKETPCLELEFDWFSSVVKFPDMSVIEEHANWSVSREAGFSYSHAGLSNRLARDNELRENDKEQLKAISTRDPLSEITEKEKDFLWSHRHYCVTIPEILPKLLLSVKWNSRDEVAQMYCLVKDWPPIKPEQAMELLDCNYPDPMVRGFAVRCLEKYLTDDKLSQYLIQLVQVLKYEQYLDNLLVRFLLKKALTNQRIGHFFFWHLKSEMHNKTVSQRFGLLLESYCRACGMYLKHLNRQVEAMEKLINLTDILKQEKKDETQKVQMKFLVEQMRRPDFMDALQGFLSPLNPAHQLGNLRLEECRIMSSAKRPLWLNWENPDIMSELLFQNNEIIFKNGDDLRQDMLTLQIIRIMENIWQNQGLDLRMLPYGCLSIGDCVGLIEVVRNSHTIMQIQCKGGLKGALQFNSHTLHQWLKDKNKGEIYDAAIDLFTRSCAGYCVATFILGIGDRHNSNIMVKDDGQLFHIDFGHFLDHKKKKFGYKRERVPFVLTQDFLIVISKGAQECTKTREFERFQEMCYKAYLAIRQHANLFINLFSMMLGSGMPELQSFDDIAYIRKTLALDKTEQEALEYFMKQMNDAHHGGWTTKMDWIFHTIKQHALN
Sequence of Sodium-dependent noradrenaline transporter (P23975 whole entry): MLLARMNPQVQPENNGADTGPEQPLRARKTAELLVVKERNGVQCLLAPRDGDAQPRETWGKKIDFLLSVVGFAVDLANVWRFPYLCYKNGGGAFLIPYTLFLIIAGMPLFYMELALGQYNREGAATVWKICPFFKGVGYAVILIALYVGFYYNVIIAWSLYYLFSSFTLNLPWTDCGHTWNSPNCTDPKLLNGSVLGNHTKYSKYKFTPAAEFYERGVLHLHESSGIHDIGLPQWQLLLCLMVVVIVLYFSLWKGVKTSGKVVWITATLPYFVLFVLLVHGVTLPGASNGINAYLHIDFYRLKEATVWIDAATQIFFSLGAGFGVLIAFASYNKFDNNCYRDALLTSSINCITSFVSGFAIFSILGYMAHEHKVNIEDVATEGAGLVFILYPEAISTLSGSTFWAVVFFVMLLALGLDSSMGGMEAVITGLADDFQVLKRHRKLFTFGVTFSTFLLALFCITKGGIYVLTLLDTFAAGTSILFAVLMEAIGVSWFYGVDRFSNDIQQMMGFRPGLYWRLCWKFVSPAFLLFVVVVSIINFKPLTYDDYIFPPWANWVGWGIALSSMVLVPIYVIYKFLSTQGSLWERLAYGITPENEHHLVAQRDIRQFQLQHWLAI
Sequence of Cyclin-dependent kinase 16 (Homo sapiens) (Q00536 whole entry): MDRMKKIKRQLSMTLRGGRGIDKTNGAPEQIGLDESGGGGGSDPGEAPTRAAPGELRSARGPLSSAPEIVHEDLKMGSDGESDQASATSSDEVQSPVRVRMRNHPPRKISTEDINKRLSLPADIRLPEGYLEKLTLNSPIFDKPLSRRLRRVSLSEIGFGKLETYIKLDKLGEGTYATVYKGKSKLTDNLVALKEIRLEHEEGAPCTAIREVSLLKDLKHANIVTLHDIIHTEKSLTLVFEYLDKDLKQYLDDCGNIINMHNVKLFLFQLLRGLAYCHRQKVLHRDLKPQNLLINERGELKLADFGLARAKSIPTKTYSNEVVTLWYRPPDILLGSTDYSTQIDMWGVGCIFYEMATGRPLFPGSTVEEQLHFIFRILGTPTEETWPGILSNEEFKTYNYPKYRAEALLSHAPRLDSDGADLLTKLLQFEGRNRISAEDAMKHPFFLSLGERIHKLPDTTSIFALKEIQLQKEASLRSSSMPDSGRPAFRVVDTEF

Turning to `CC(C)(C)OC(=O)N1CCCC1CNC1CCC(c2cc(F)ccc2F)(S(=O)(=O)c2ccc(Cl)cc2)CC1` (stereo not given) [GSI-NC], the inhibitory constant (Ki) (commonly a measure of affinity in units of concentration, obtained from inhibition or displacement) in [1] was 237 nM; in [2], 2430 nM; in test [3] it was 2770 nM; in test [4] it was 516 nM.
Consider `O=S(=O)(NC1CCC(c2cc(F)ccc2F)(S(=O)(=O)c2ccc(Cl)cc2)CC1)C(F)(F)F` (stereo not given) [MRK-560], for which the residual activity in test [5], in [6], in test [7], in [8], in [9] and in test [10] was 100% throughout. The residual activity in test [11] is 100%; in test [12] it was 92%; in test [13], 100%; in [14] it was 100%; in test [15], 100%; in test [16], 100%. Moreover, the residual activity was 100% in test [17]; 99% in test [18]; 70% in [19]; 68% in [20]; 100% in [21]; 73% in test [22]. Moreover, the residual activity is 91% in test [23]; 100% in test [24]; 100% in test [25]; 100% in [26]; 100% in test [27]; 100% in test [28]. Moreover, the residual activity was 100% in [29]; 84% in [30]; 92% in [31]; 100% in [32]; 100% in [33]; 100% in [34]. Besides, the residual activity is 100% in [35]; 100% in test [36]; 81% in test [37]; 100% in [38]; 100% in [39]; 100% in test [40]. The residual activity in test [41] is 92%; in test [42] it was 100%; in [43], 100%; in [44] it was 100%; in test [45] it was 68%.
